Results from the supplement of paper PMC10307832.

The cell lines below were run with COc1cc([C@@H]2c3cc4c(cc3[C@@H](O[C@@H]3O[C@@H]5CO[C@@H](C)O[C@H]5[C@H](O)[C@H]3O)[C@H]3COC(=O)[C@H]23)OCO4)cc(OC)c1O [Etoposide] (assay: relative viability (nuclei count vs DMSO), 5 days (fraction); higher = more cells survive). Conditions: 1 µM.
How it was run: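 Lung cancer cell lines in 1536-well plates were kept overnight at 37 °C, then pinned with five library-drug doses (not always all listed) spaced by √10 on vehicle-anchored plates. After 5 days without medium change, cells were fixed, permeabilised and Hoechst-stained in one step, imaged at 4×, and nuclei were counted with MetaXpress. Viability is treated-well nuclei divided by vehicle-well nuclei, taken as the median over plates. Plates passed only with control CV below 25% and at least one doubling.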
NCI-H1563 gave a relative viability of 0.55.

What follows are cell lines tested with CC1=C(N=C(N=C1N)[C@H](CC(=O)N)NC[C@@H](C(=O)N)N)C(=O)N[C@@H]([C@H](C2=CN=CN2)OC3C(C(C(C(O3)CO)O)O)OC4C(C(C(C(O4)CO)O)OC(=O)N)O)C(=O)N[C@H](C)[C@H]([C@H](C)C(=O)N[C@@H]([C@@H](C)O)C(=O)NCCC5=NC(=CS5)C6=NC(=CS6)C(=O)NCCC[S+](C)C)O [Bleomycin] + CS(=O)(=O)N1CCN(Cc2cc3nc(-c4cccc5[nH]ncc45)nc(N4CCOCC4)c3s2)CC1 [Pictilisib] (partner 1 µM) (assay: relative viability (nuclei count vs DMSO), 5 days (fraction); higher = more cells survive). Conditions: first compound 0.01 µM; main component drawn.
How it was run: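 Relative viability divides the nuclei count in treated wells by that in vehicle wells. Lung cancer cell lines were seeded in 1536-well plates, dosed by pin tool the next day, and fixed and stained after 5 days in one step with final 0.05% Triton X-100, 1% formaldehyde and 1 ug/ml Hoechst. Dosing was a single drug or a fixed anchor-drug dose plus five library-drug doses (not always all listed) in √10 steps, and values are medians of duplicate plates imaged at 4×.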
With NCI-H1734 the relative viability was 0.382.
Cell Line NCI-H520 has a relative viability of 0.298.
Work on NCI-H2405 yielded a relative viability of 0.45.
Cell Line SW 1573 has a relative viability of 0.43.
NCI-H1395 was tested, and the relative viability was 0.579.
Cell Line 201T has a relative viability of 0.686.
NCI-H1915 gave a relative viability of 0.575.
Cell Line HCC-827 has a relative viability of 0.921.
For LXF-289, the relative viability was 0.713.
In the case of NCI-H2347, the relative viability is reported as 0.605.
With NCI-H1299 the relative viability was 0.65.
Work on NCI-H650 yielded a relative viability of 0.628.
For NCI-H1651, the relative viability was 0.576.
In the case of EPLC-272H, the relative viability is reported as 0.288.
NCI-H23 gave a relative viability of 0.262.
Work on NCI-H1792 yielded a relative viability of 0.301.
With NCI-H1355 the relative viability was 0.425.
NCI-H322M was tested, and the relative viability was 0.49.
In the case of NCI-H1437, the relative viability is reported as 0.47.
In the case of NCI-H1755, the relative viability is reported as 0.429.
For NCI-H2023, the relative viability was 0.225.
With HCC-15 the relative viability was 0.685.
NCI-H1793 gave a relative viability of 0.398.
Cell Line PC-3 [JPC-3] has a relative viability of 0.681.
In the case of EKVX, the relative viability is reported as 0.422.
Cell Line LC-2-ad has a relative viability of 0.255.
For NCI-H1563, the relative viability was 0.608.

Same assay, conditions: first compound 0.03162 µM; main component drawn
With NCI-H1734 the relative viability was 0.411.
In the case of NCI-H520, the relative viability is reported as 0.301.
NCI-H2405 was tested, and the relative viability was 0.417.
For SW 1573, the relative viability was 0.361.
Work on NCI-H1395 yielded a relative viability of 0.6.
With 201T the relative viability was 0.59.
Cell Line NCI-H1915 has a relative viability of 0.65.
Cell Line HCC-827 has a relative viability of 0.787.
In the case of LXF-289, the relative viability is reported as 0.799.
With NCI-H2347 the relative viability was 0.599.
Work on NCI-H1299 yielded a relative viability of 0.571.
In the case of NCI-H650, the relative viability is reported as 0.764.
CAL-12T was tested, and the relative viability was 0.588.
Cell Line NCI-H1651 has a relative viability of 0.517.
EPLC-272H was tested, and the relative viability was 0.352.
Work on NCI-H23 yielded a relative viability of 0.348.
NCI-H1792 showed a relative viability of 0.231.
NCI-H1355 showed a relative viability of 0.458.
NCI-H322M showed a relative viability of 0.493.
For NCI-H1437, the relative viability was 0.407.
Cell Line NCI-H1755 has a relative viability of 0.498.
NCI-H2023 showed a relative viability of 0.193.
With HCC-15 the relative viability was 0.693.
With NCI-H1793 the relative viability was 0.314.
PC-3 [JPC-3] gave a relative viability of 0.681.
EKVX showed a relative viability of 0.39.
LC-2-ad gave a relative viability of 0.368.
For NCI-H1563, the relative viability was 0.698.

Same assay, conditions: first compound 0.1 µM; main component drawn
With NCI-H1734 the relative viability was 0.357.
For NCI-H520, the relative viability was 0.287.
In the case of NCI-H2405, the relative viability is reported as 0.42.
Cell Line SW 1573 has a relative viability of 0.459.
For NCI-H1395, the relative viability was 0.476.
201T gave a relative viability of 0.622.
For NCI-H1915, the relative viability was 0.535.
HCC-827 was tested, and the relative viability was 0.916.
In the case of LXF-289, the relative viability is reported as 0.685.
With NCI-H2347 the relative viability was 0.532.
Work on NCI-H1299 yielded a relative viability of 0.367.
NCI-H650 was tested, and the relative viability was 0.728.
For CAL-12T, the relative viability was 0.394.
In the case of NCI-H1651, the relative viability is reported as 0.44.
In the case of EPLC-272H, the relative viability is reported as 0.265.
In the case of NCI-H23, the relative viability is reported as 0.263.
Work on NCI-H1792 yielded a relative viability of 0.217.
NCI-H1355 showed a relative viability of 0.358.
NCI-H322M gave a relative viability of 0.491.
NCI-H1437 gave a relative viability of 0.24.
NCI-H1755 was tested, and the relative viability was 0.385.
With NCI-H2023 the relative viability was 0.158.
HCC-15 gave a relative viability of 0.627.
For NCI-H1793, the relative viability was 0.312.
Work on PC-3 [JPC-3] yielded a relative viability of 0.768.
For EKVX, the relative viability was 0.376.
For LC-2-ad, the relative viability was 0.292.
NCI-H1563 gave a relative viability of 0.623.

Same assay, conditions: first compound 0.3162 µM; main component drawn
With NCI-H1734 the relative viability was 0.267.
In the case of NCI-H520, the relative viability is reported as 0.256.
For NCI-H2405, the relative viability was 0.254.
Cell Line SW 1573 has a relative viability of 0.254.
NCI-H1395 gave a relative viability of 0.686.
Cell Line 201T has a relative viability of 0.634.
Work on NCI-H1915 yielded a relative viability of 0.247.
HCC-827 was tested, and the relative viability was 0.512.
In the case of LXF-289, the relative viability is reported as 0.358.
NCI-H2347 was tested, and the relative viability was 0.271.
In the case of NCI-H1299, the relative viability is reported as 0.149.
NCI-H650 was tested, and the relative viability was 0.483.
CAL-12T gave a relative viability of 0.207.
Work on NCI-H1651 yielded a relative viability of 0.249.
For EPLC-272H, the relative viability was 0.137.
Cell Line NCI-H23 has a relative viability of 0.169.
NCI-H1792 gave a relative viability of 0.102.
With NCI-H1355 the relative viability was 0.214.
Work on NCI-H322M yielded a relative viability of 0.4.
Cell Line NCI-H1437 has a relative viability of 0.146.
NCI-H1755 showed a relative viability of 0.282.
For NCI-H2023, the relative viability was 0.124.
HCC-15 was tested, and the relative viability was 0.199.
NCI-H1793 gave a relative viability of 0.233.
PC-3 [JPC-3] gave a relative viability of 0.569.
EKVX showed a relative viability of 0.212.
With LC-2-ad the relative viability was 0.173.
NCI-H1563 was tested, and the relative viability was 0.574.

Same assay, conditions: first compound 1 µM; main component drawn
Cell Line NCI-H1734 has a relative viability of 0.22.
NCI-H520 showed a relative viability of 0.238.
For NCI-H2405, the relative viability was 0.202.
For SW 1573, the relative viability was 0.174.
NCI-H1395 gave a relative viability of 0.489.
With 201T the relative viability was 0.512.
NCI-H1915 was tested, and the relative viability was 0.146.
In the case of HCC-827, the relative viability is reported as 0.399.
With LXF-289 the relative viability was 0.15.
For NCI-H2347, the relative viability was 0.575.
NCI-H1299 showed a relative viability of 0.154.
Cell Line NCI-H650 has a relative viability of 0.25.
In the case of CAL-12T, the relative viability is reported as 0.236.
In the case of NCI-H1651, the relative viability is reported as 0.153.
Work on EPLC-272H yielded a relative viability of 0.161.
For NCI-H23, the relative viability was 0.153.
For NCI-H1792, the relative viability was 0.122.
NCI-H1355 was tested, and the relative viability was 0.214.
NCI-H322M was tested, and the relative viability was 0.421.
In the case of NCI-H1437, the relative viability is reported as 0.224.
Cell Line NCI-H1755 has a relative viability of 0.247.
NCI-H2023 gave a relative viability of 0.0805.
In the case of HCC-15, the relative viability is reported as 0.219.
In the case of NCI-H1793, the relative viability is reported as 0.169.
PC-3 [JPC-3] gave a relative viability of 0.466.
For EKVX, the relative viability was 0.189.
LC-2-ad was tested, and the relative viability was 0.106.
